Measured values published in ChEMBL document CHEMBL1201862, “PubChem BioAssay data set” (2004).
The source made the active and inactive calls.

Assays:
[1] = target: T1, Tyrosine-protein phosphatase non-receptor type 7 (Homo sapiens, UniProt P35236); assay: redox-dependent HePTP inhibition, mechanism study, biochemical, fluorescence (AID 2068); type: functional
T1 sequence (P35236 whole entry): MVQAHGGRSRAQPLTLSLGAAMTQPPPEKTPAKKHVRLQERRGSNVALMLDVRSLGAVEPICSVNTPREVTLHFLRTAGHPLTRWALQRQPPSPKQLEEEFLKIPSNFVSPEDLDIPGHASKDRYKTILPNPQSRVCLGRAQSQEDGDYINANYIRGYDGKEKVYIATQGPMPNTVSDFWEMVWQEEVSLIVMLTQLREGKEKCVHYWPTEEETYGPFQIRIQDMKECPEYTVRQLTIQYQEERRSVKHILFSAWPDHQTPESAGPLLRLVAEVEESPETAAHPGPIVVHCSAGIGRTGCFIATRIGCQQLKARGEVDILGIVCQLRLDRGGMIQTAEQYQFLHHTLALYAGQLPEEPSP

[2] = target: Induced myeloid leukemia cell differentiation protein Mcl-1 (Homo sapiens, UniProt Q07820); type: functional
[3] = target: Estrogen receptor beta (Homo sapiens, UniProt Q92731); assay: ERβ–SRC-3 coactivator interaction inhibitors, confirmation, orthogonal assay, biochemical, ELISA, streptavidin-HRP readout (AID 1060)
[4] = target: Bcl-2-like protein 10 (Homo sapiens, UniProt Q9HD36); assay: displacers of TR3 peptide from Bcl-B, primary screen, selectivity assay for Bfl-1 inhibitor project, biochemical, fluorescence polarization, FITC-TR3 peptide (AID 748);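 further: fluorescence polarization from a fluorescein-labelled TR3 peptide binding purified Bcl-B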
[5] = target: T2, Tyrosine-protein phosphatase non-receptor type 22 (Homo sapiens, UniProt Q9Y2R2); assay: SAR LYP1 Fluorescent Assay using OMFP substrate for In Vitro dose response studies - Set 3. [Related pubchem assays (depositor defined):AID1779, AID1784, AID2140, AID2686]; type: functional
T2 sequence (Q9Y2R2 whole entry): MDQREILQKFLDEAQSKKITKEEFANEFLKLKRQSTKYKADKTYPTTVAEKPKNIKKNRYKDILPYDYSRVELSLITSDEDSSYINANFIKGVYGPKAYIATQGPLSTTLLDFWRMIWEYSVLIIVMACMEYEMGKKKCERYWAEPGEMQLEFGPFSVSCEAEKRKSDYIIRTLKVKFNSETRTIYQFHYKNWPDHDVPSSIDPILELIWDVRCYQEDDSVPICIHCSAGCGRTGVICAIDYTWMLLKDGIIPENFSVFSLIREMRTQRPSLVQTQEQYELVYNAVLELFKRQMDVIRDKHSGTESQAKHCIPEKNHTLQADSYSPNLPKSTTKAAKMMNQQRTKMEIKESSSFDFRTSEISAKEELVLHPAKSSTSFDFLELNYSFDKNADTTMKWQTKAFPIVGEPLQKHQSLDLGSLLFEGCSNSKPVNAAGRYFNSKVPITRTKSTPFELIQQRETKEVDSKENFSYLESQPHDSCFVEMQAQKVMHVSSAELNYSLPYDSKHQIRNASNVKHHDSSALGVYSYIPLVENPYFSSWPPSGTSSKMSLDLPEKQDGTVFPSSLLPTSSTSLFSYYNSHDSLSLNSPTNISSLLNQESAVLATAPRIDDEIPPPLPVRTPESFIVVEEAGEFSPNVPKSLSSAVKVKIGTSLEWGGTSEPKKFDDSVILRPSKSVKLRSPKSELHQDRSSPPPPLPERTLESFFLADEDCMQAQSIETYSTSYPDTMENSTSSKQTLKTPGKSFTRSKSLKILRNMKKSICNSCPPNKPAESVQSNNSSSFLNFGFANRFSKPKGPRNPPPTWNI

[6] = target: T3, Dual specificity protein phosphatase 3 (Homo sapiens, UniProt P51452); assay: VHR1 phosphatase inhibitors, biochemical (AID 1878)
[7] = target: T3, Dual specificity protein phosphatase 3; assay: SAR VHR1 absorbance Assay for In Vitro dose response studies. [Related pubchem assays (depositor defined):AID1654, AID1661, AID1878, AID1992, AID2004]
[8] = target: T4, Dual specificity protein phosphatase 6 (Rattus norvegicus, UniProt Q64346); type: functional;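 further: confirmatory in vitro dose-response testing of MKP-3 inhibition; recombinant His-tagged MKP-3 made in E. coli BL21 with OMFP substrate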
T4 sequence (Q64346 whole entry): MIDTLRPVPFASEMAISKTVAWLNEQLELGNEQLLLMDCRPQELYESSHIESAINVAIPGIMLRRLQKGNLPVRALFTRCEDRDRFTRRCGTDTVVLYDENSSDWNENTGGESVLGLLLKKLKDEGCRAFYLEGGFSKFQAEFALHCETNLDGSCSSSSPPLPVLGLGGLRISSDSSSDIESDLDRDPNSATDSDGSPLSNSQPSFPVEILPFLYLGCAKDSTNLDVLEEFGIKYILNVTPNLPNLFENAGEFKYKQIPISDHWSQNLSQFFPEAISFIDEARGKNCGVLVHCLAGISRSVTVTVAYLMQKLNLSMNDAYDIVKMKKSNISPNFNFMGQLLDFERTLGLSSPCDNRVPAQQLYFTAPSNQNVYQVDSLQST

[9] = target: T3, Dual specificity protein phosphatase 3; assay: VHR1 phosphatase inhibitors, primary screen, biochemical, absorbance, uHTS (AID 1654)
[10] = target: T5, Voltage-gated N-type calcium channel alpha-1B subunit/Amyloid beta A4 precursor protein-binding family A member 1 (Homo sapiens, UniProt Q00975+Q02410); type: protein assay
[11] = target: Serine/threonine-protein phosphatase (Homo sapiens, UniProt Q9BPW0); assay: Counterscreen for inhibitors of PP1: fluorescence-based biochemical high throughput dose response assay to identify inhibitors of Protein Phosphatase 5 (PP5). [Related pubchem assays: 2034 (Summary (PP5 inhibitors)), 1987 (PP5 inhibitors in singlate), 2235 (PP1 inhibitors in singlate)]
[12] = target: Serine/threonine-protein phosphatase PP1-alpha catalytic subunit (Homo sapiens, UniProt P62136); assay: PP1 phosphatase inhibitors, dose response, biochemical, fluorescence (AID 2403);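 further: phosphatase turnover of OMFP into fluorescent 3-O-methylfluorescein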
[13] = target: T3, Dual specificity protein phosphatase 3; assay: SAR VHR1 Fluorescent Assay for In Vitro dose response studies. [Related pubchem assays (depositor defined):AID1654, AID1661, AID1878, AID1992, AID2004, AID2070, AID2085]; type: functional
[14] = target: T5, Voltage-gated N-type calcium channel alpha-1B subunit/Amyloid beta A4 precursor protein-binding family A member 1; type: protein assay; remark: listed apart in the source
[15] = target: Tyrosine-protein phosphatase non-receptor type 12 (Homo sapiens, UniProt Q05209); assay: SAR Selectivity Analysis of small molecule inhibitors of PEST using pCAP in a fluorescence assay. [Related pubchem assays (depositor defined):AID1779, AID1784, AID2135]; type: functional
[16] = target: T6, Long-chain-fatty-acid--AMP ligase FadD28 (Mycobacterium tuberculosis, UniProt P9WQ59); assay: Fluorescence polarization aasay to screen for inhibitors that compete for the binding of FadD28 to a bisubstrate Measured in Biochemical System Using Plate Reader - 2147-01_Inhibitor_Dose_CherryPick_Activity.; type: functional, Mycobacterium tuberculosis H37Rv
T6 sequence (P9WQ59 whole entry): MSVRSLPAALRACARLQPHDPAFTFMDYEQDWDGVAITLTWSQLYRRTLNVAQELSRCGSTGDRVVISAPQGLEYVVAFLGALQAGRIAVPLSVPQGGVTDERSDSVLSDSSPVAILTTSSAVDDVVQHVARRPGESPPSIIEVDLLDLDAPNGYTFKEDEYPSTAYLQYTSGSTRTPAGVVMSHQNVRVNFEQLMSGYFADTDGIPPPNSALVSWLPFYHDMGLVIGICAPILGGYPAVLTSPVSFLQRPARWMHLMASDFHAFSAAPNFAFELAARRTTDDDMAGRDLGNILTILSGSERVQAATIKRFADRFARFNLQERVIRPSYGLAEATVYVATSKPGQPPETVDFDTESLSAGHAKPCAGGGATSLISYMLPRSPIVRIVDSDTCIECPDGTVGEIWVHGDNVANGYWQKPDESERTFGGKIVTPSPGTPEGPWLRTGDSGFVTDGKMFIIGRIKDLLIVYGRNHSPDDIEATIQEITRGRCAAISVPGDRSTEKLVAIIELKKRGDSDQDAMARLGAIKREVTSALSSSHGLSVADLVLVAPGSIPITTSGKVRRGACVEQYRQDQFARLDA

[17] = target: T4, Dual specificity protein phosphatase 6; assay: MKP-3 phosphatase inhibitors, primary screen, biochemical, rat enzyme, in vitro (AID 425)
[18] = target: T2, Tyrosine-protein phosphatase non-receptor type 22; assay: LYP (PTPN22) phosphatase inhibitor potency, SAR follow-up, biochemical, pCAP fluorogenic substrate, fluorescence, set 3 (AID 449727); type: functional
[19] = target: CAAX prenyl protease 2 (Saccharomyces cerevisiae S288c, UniProt Q03530); type: biochemical
[20] = target: Trypsin (Sus scrofa, UniProt P00761); assay: porcine trypsin inhibitors, dose response, selectivity assay for Rce1 protease inhibitor project, biochemical, quenched peptide fluorescence, cherry-pick (AID 488789)
[21] = target: G-protein coupled receptor 35 (Homo sapiens, UniProt Q9HC97); assay: GPR35 antagonists blocking zaprinast-driven arrestin recruitment, primary screen, imaging, U2OS, beta-arrestin-GFP, zaprinast agonist (AID 2058); type: functional;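 further: antagonist potency meaning inhibition of agonist-induced arrestin redistribution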
[22] = target: T7, Melanin-concentrating hormone receptor 1 (Homo sapiens, UniProt Q99705); assay: Late-stage fluorescence-based counterscreen for antagonists of the G-protein coupled receptor 7 (GPR7): cell-based dose response assay to identify antagonists of the melanin-concentrating hormone receptor 1 (MCHR1). [Related pubchem assays (depositor defined):AID1861, AID1880, AID1952, AID2148, AID2251, AID2257, AID485339]; type: functional
[23] = target: T7, Melanin-concentrating hormone receptor 1; assay: Fluorescence-based counterscreen for antagonists of the G-protein coupled receptor 7 (GPR7): cell-based high throughput dose response assay to identify antagonists of the melanin-concentrating hormone receptor 1 (MCHR1).; type: functional
[24] = target: T8, Neuropeptides B/W receptor type 1 (Homo sapiens, UniProt P48145); assay: Fluorescence-based dose response cell-based high throughput screening assay to identify antagonists of the G-protein coupled receptor 7 (GPR7). [Related pubchem assays: 1952 (Screening assay (GPR7 antagonists).), 1880 (Summary AID.)]; type: functional
T8 sequence (P48145 whole entry): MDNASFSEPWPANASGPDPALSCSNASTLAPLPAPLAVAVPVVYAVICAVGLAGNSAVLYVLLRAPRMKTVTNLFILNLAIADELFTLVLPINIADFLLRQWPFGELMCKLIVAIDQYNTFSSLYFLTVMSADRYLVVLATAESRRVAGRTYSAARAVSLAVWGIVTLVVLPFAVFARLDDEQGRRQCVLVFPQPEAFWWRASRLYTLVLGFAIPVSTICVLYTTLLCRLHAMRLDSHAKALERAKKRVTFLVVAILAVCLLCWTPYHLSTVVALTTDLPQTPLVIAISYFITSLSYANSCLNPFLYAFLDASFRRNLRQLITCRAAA

[25] = target: Female germline-specific tumor suppressor gld-1 (Caenorhabditis elegans, UniProt Q17339); assay: inhibitors of GLD-1 binding to TGE RNA, dose response, biochemical, fluorescence polarization, C. elegans (AID 2802);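 further: fluorescence polarization of labeled TGE RNA bound by purified gld-1 protein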
[26] = target: T9, Polyadenylate-binding protein 1 (Homo sapiens, UniProt P11940); assay: PABP1 MLLE–PAM2 binding inhibitor potency, dose response, biochemical, fluorescence polarization, FITC-PAM2 peptide (AID 602259); type: functional; settings: read-out: IC50_Mean
[27] = target: T9, Polyadenylate-binding protein 1; assay: PABP1 MLLE–PAM2 interaction inhibitors, dose response, miRNA deadenylation inhibitor project, biochemical, fluorescence polarization, Cy5-PAM2 peptide, secondary (AID 602260); type: functional; settings: read-out: IC50_Mean
[28] = target: Protein Rev (Human immunodeficiency virus type 1 group M subtype B (isolate HXB2)(HIV-1), UniProt P04618); assay: inhibitors of Rev binding to RRE RNA, dose response, biochemical, fluorescence polarization, HIV-1 (AID 434976); parameters: species or system Human immunodeficiency virus 1
[29] = target: T10, Protein Tat (Human immunodeficiency virus type 1 group M subtype B (isolate HXB2)(HIV-1), UniProt P04608); type: functional;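 further: tat binding to TAR RNA read out by fluorescence polarization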
T10 sequence (P04608 whole entry): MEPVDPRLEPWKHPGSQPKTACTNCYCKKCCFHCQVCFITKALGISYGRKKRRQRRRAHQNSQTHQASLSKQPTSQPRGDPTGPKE

[30] = THP-1 cell cytotoxicity, dose response, cytotoxicity control for Vif-APOBEC3G degradation inhibitor project, THP-1 cells (AID 1117359); type: functional; settings: Human immunodeficiency virus 1, THP-1

T3 sequence (P51452 whole entry): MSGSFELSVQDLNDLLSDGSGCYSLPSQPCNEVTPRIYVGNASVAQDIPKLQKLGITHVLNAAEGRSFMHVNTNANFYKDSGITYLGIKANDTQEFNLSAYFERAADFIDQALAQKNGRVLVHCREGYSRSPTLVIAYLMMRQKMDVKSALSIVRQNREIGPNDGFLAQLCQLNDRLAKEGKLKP
T9 sequence (P11940 whole entry): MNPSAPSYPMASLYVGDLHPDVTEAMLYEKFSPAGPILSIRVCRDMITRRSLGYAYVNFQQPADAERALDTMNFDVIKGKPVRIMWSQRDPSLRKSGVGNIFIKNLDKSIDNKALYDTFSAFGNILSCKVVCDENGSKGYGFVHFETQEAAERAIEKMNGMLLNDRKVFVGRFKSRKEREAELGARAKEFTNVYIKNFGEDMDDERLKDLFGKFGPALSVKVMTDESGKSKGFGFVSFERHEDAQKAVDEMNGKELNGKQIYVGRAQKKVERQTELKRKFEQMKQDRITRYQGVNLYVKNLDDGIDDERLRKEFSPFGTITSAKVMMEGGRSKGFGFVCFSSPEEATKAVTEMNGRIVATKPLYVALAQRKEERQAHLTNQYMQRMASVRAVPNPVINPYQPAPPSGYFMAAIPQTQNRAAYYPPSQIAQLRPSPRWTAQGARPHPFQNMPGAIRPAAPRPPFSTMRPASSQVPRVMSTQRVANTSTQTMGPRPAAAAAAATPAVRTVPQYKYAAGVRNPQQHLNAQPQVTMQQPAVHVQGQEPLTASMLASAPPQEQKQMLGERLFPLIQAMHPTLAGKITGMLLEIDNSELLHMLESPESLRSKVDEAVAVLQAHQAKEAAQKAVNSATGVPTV
T5 sequence (Q00975 whole entry): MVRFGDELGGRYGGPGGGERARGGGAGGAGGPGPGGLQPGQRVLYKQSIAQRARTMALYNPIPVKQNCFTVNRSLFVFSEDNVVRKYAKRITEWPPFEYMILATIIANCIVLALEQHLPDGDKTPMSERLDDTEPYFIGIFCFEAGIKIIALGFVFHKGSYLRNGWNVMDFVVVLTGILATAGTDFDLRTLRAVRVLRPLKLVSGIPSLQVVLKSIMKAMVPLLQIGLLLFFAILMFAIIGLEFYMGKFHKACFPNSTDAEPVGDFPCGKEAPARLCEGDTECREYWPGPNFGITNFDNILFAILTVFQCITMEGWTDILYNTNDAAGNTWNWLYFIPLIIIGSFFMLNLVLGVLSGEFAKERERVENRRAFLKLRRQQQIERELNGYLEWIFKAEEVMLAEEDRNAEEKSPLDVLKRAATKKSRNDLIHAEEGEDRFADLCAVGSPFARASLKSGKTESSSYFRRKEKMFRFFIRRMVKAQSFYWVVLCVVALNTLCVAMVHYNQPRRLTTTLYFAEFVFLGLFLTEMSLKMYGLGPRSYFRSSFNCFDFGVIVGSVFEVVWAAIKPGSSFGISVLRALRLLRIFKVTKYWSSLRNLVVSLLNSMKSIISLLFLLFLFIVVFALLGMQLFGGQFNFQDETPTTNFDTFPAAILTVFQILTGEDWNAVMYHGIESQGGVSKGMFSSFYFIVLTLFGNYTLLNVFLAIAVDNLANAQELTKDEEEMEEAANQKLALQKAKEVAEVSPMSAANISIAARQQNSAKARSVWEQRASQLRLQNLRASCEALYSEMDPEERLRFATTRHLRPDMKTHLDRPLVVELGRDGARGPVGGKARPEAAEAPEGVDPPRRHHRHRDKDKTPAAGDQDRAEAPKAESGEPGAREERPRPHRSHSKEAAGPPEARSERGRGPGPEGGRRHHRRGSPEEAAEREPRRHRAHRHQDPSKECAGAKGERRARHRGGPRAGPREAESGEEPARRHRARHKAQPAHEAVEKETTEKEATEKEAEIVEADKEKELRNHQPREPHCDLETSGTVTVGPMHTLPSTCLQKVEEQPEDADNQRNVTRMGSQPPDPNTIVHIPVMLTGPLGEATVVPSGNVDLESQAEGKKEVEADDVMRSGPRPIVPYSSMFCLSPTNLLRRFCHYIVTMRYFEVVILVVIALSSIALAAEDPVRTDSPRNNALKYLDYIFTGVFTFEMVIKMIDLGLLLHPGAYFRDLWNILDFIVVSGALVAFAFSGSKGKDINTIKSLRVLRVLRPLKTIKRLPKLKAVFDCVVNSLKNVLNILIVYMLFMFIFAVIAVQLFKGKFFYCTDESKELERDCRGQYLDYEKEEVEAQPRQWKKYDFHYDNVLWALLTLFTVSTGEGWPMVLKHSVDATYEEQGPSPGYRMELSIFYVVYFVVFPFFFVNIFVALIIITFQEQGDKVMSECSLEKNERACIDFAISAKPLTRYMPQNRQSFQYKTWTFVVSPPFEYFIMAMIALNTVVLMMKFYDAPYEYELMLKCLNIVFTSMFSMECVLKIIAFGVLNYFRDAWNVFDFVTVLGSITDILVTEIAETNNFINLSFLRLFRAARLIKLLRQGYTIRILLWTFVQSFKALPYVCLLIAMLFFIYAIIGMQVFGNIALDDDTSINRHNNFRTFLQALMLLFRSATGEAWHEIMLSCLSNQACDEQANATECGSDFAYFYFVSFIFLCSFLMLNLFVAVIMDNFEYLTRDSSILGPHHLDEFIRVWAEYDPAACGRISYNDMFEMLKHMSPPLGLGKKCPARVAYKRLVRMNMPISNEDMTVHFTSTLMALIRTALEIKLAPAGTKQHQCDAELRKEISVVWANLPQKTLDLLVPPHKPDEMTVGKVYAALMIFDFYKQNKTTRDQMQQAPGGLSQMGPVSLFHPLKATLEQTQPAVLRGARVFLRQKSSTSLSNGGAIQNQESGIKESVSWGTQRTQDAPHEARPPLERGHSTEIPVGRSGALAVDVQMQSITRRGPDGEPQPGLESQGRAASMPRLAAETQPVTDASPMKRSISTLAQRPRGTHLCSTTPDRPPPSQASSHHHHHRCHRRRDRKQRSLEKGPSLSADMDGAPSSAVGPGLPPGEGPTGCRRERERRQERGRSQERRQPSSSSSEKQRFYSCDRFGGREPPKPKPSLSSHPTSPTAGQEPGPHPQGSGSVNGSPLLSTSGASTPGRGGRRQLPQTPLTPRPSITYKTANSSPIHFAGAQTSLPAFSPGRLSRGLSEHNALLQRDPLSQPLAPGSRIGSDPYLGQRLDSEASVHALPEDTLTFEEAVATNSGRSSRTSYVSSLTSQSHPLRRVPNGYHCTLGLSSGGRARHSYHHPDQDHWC
T5 sequence (Q02410 whole entry): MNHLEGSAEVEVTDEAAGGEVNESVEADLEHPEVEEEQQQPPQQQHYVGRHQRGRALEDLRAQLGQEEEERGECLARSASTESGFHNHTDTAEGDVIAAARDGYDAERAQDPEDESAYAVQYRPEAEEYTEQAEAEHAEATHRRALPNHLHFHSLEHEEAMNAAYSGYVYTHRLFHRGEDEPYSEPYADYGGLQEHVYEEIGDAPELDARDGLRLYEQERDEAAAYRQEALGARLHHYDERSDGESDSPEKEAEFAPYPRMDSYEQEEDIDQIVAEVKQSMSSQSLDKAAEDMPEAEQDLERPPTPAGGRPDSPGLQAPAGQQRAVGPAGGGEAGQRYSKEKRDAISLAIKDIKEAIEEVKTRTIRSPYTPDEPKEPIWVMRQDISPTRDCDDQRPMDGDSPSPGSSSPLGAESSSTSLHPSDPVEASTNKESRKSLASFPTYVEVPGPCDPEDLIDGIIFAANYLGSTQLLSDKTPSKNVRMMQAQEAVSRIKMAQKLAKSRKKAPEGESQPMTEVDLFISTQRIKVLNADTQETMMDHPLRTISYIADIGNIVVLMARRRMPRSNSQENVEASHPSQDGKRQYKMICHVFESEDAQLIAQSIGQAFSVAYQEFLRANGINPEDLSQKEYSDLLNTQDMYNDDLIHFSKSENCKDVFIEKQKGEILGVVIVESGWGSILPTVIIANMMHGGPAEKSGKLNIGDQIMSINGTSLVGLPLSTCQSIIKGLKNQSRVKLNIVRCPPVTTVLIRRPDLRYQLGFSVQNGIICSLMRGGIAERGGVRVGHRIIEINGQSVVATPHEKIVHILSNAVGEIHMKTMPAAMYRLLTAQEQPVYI
T7 sequence (Q99705 whole entry): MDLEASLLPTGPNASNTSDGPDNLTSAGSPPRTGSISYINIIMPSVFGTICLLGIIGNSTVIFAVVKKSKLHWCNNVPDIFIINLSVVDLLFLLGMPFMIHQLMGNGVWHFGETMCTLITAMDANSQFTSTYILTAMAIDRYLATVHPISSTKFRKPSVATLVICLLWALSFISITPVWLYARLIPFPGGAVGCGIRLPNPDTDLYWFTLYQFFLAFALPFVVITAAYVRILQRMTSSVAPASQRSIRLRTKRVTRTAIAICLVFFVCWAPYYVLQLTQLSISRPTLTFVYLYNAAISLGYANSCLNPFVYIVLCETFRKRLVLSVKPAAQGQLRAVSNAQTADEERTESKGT
Bcl-2-like protein 10, sequence (Q9HD36 whole entry): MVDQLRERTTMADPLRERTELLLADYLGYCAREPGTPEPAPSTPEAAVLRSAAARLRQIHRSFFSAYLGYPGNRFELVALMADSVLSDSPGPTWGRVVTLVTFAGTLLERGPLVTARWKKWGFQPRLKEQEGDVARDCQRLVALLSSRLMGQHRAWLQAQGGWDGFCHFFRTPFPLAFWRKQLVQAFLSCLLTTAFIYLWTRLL
Serine/threonine-protein phosphatase, sequence (Q9BPW0 whole entry): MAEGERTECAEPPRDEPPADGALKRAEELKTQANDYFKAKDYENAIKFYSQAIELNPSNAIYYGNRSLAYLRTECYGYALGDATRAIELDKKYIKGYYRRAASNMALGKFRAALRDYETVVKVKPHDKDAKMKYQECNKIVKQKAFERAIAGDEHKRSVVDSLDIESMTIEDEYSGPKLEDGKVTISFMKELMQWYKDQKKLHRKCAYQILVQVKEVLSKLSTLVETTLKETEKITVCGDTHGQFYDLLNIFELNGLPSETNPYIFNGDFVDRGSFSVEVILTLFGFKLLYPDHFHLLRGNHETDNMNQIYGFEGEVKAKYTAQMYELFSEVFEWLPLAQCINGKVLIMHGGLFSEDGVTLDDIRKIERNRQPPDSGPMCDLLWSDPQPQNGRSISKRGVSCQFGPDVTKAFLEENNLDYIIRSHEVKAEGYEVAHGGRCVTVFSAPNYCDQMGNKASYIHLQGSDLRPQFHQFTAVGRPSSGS

With `O=C(NCc1ccccn1)c1ccc2nc(-c3ccco3)c(-c3ccco3)nc2c1` the IC50 [1] was 3.99 µM (active), the IC50 [2] was 2.28 µM (active) and the IC50 [3] was 4.9 µM (not active). For the same compound, the IC50 [4] was 9.92 µM (active).

With `COc1cc(/C=C2\SC(=O)N(CC(=O)Nc3ccc(C)cc3)C2=O)cc(Cl)c1OCC(=O)O` the IC50 [1] was 0.256 µM (active), the IC50 [5] was 1.51 µM (active) and the IC50 [6] was < 1.23 µM (inactive). The IC50 [7] was 2.4 µM (active), the IC50 [8] was 6.66 µM (active) and the IC50 [9] was 5.01 µM (active). The IC50 [10] was > 50 µM (inactive), the IC50 [11] was > 67 µM (not active) and the IC50 [12] was 6.24 µM (active). The IC50 [13] was 1.18 µM (active), the IC50 [14] was 6.91 µM (active) and the IC50 [15] was 0.313 µM (active). For the same compound, the AC50 [16] was > 100 µM (inactive), the IC50 [17] was 75.2 µM (active) and the IC50 [18] was 0.803 µM (active).

With `N#Cc1nc(-c2ccco2)oc1N1CCN(C(c2ccccc2)c2ccccc2)CC1` the AC50 [19] was 0.99 µM (active) and the AC50 [20] was 41.5 µM (active).

With `CCCCCOC(=O)c1ccc(NC(=O)c2cccc(NC(=O)c3ccccc3C(=O)O)c2)cc1` the IC50 [21] was 1 µM (active).

With `COc1ccc(Oc2c(Cl)cnn(-c3ccc(C)cc3)c2=O)cc1` the IC50 [22] was 17 µM (inactive), the IC50 [23] was 23.6 µM (not active) and the IC50 [24] was 2.94 µM (active).

In the case of `Clc1ccc(/C=N/c2c(-c3ccco3)nc3ccccn23)cc1`, the IC50 [25] is reported as 2.59 µM (active), the IC50 [26] is reported as 59.2 µM (inactive) and the IC50 [27] is reported as > 66 µM (inactive). The IC50 [28] was > 75.4 µM (not active), the IC50 [29] was 6.48 µM (inconclusive) and the CC50 [30] was > 40 µM (active).
